For 11 compounds, Ki results are on record in US7482344B2, “Tricyclic steroid hormone nuclear receptor modulators” (Eli Lilly and Company, priority 2003, dated 2009).

Usually Ki stands for the equilibrium dissociation constant of an inhibitor or competing ligand from its target. Higher therefore signals lower affinity.

This experiment deals with T1, human GR (glucocorticoid receptor) (Homo sapiens, UniProt P04150).
T1 construct: expressed in transfected cells; host or cells: 293 cells
T1 sequence (P04150 1-777): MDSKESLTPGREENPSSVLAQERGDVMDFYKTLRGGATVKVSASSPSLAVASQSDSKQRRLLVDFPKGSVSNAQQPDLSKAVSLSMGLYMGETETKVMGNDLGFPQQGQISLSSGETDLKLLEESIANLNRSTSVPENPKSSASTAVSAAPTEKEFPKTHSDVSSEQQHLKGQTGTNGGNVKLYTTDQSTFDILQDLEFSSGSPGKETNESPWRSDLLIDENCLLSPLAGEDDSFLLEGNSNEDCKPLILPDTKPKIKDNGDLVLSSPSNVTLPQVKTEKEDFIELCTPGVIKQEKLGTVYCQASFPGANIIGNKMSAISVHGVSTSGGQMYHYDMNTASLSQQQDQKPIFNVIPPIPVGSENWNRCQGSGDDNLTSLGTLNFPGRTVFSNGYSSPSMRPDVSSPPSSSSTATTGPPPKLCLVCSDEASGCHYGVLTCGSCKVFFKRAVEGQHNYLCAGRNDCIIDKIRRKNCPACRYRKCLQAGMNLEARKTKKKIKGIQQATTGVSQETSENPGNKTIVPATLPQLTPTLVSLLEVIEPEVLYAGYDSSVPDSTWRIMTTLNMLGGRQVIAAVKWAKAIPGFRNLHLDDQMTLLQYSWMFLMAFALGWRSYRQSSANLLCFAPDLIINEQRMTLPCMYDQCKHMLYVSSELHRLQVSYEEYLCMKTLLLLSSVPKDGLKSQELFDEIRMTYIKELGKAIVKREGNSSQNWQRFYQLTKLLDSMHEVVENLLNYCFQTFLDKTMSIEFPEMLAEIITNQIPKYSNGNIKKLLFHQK
The experiment can be described thus: Alternative Binding Assay Protocol (Method 2), 293-GR lysate, 3H-dexamethasone competition. As to conditions: 0.3 nM 3H-dexamethasone. The method, then: Alternative Binding Assay Protocol for MR, GR, AR, and PR (Method 2):
Cell lysates from 293 cells overexpressing human GR (glucocorticoid receptor), AR (androgen receptor), MR (mineralocorticoid receptor) or PR (progesterone receptor) are used for competition binding assays to determine Ki values for test compounds. Briefly, competition binding assays are run in a buffer containing 20 mM Hepes, pH 7.6, 0.2 mM EDTA, 75 mM NaCl, 1.5 mM MgCl2, 20% glycerol, 20 mM sodium molybdate, 0.2 mM DTT, 20 ug/ml aprotinin and 20 ug/ml leupeptin, using either 0.3 nM ^3H-dexamethasone for GR binding, 0.36 nM ^3H-methyltrienolone for AR binding, 0.25 nM ^3H-aldosterone for MR binding, or 0.29 nM ^3H-methyltrienolone for PR binding, and either 20 ug 293-GR lysate, 22 ug 293-AR lysate, 20 ug 293-MR lysate or 40 ug 293-PR lysate per well. Competing compounds are added various concentrations in half-log increments. Non-specific binding is determined in the presence of 500 nM dexamethasone for GR binding, 500 nM aldosterone for MR binding, or 500 nM methyltrienolone for AR and PR binding. The binding reaction (140 μl) is incubated for overnight at 4° C. then 70 μl of cold charcoal-dextran buffer (containing per 50 ml of assay buffer, 0.75 g of charcoal and 0.25 g of dextran) is added to each reaction. Plates are mixed 8 minutes on an orbital shaker at 4° C. Plates are then centrifuged at 3,000 rpm at 4° C. for 10 minutes. An aliquot of 120 μl of the mix is transferred to another 96-well plate and 175 μl of Wallac Optiphase “Hisafe 3” scintillation fluid is added to each well. Plates are sealed and shaken vigorously on an orbital shaker. After an incubation of 2 hrs, plates are read in a Wallac Microbeta counter. The data is used to calculate an IC50 and % Inhibition at 10 μM. The Kd for ^3H-dexamethasone for GR binding, ^3H-methyltrienolone for AR binding, ^3H-aldosterone for MR binding, or ^3H-methyltrienolone for PR binding, is determined by saturation binding. The IC50 values for compounds are converted to Ki using Cheng-Prusoff equation and the Kd determined by saturation binding assay.
Compound `O=c1[nH]c2cc(C=C3c4ccccc4Sc4ccccc43)ccc2n1CCN1CCOCC1` [Example 13] gave an inhibitory constant (Ki) of less than 1000 nM.

For the compound `O=c1[nH]c2ccc(C=C3c4ccccc4Sc4ccccc43)cc2[nH]1` [Example 10], the Ki was less than 10000 nM. Turning to `Nc1cccc(C=C2c3ccccc3Sc3ccccc32)c1` [Example 9], the Ki was less than 1000 nM. The figure for `CC(=C1c2ccccc2Sc2ccccc21)c1cccc(NS(C)(=O)=O)c1` [Example 4, 9-[1-(3-methylsulfonoylaminophenyl)ethylene] thioxanthine] is less than 500 nM.

`CC(=C1c2ccccc2Sc2ccccc21)c1cccc(N)c1` [Example 6] displayed a Ki of less than 500 nM. Turning to `CN1CCN(CCn2c(=O)[nH]c3cc(C=C4c5ccccc5Sc5ccccc54)ccc32)CC1` [Example 14], the inhibitory constant (Ki) was less than 10000 nM. `Oc1ccccc1C=C1c2ccccc2Sc2ccccc21` [Example 15] registered a Ki of less than 500 nM. The result for `O=c1[nH]c2cc(C=C3c4ccccc4Sc4ccccc43)ccc2o1` [Example 11] reads less than 500 nM.

On to `CS(=O)(=O)Nc1cccc(C=C2c3ccccc3Sc3ccccc32)c1` [Example 8], for which the inhibition constant (Ki) was less than 500 nM. The figure for `O=c1[nH]c2cc(C=C3c4ccccc4Sc4ccccc43)ccc2s1` [Example 12] is less than 500 nM; for `O=c1[nH]c2ccc(C=C3c4ccc(F)cc4Sc4cc(F)ccc43)cc2[nH]1` [Example 5, 5-(3,6-Difluoro-thioxanthen-9-ylidenemethyl)-1,3-dihydro-benzoimidazol-2-one] it is less than 1000 nM.
